Test results published in patent US9730912B2, “Pharmaceutical compounds” (ASTEX THERAPEUTICS LIMITED, priority 2006, dated 2017).

Legend:
[1] = target: T1, human Hsp90α N-terminal domain (Homo sapiens, UniProt P07900); test: Isothermal titration calorimetry (ITC) binding to human Hsp90; details: 25 mM Tris, 100 mM NaCl, 1 mM MgCl2, 1 mM TCEP, 5% DMSO, pH 7.4
T1 construct: Cloning, expression, and purification of the Human Hsp90a N-terminal domain were performed according to published methods; made in house
Method: The ability of the compounds of the invention to bind to human Hsp90 proteins was determined using isothermal titration calorimetry.
Isothermal titration calorimetry (ITC) experiments were performed with a VP-ITC titration calorimeter (Microcal Inc., Northampton, Mass., USA). […] All solutions were filtered and degassed prior to a titration being carried out. The enthalpy change resulting from each injection of ligand was obtained through integration of the calorimetric signal. Data were analysed using Origin 7.0 (Microcal Software Inc., Northampton, Mass.). Heats of dilution were estimated using the final injections of each individual titration and subtracted before data fitting. Different ITC experimental formats were employed in order to obtain compound dissociation constants (Kd's) over a wide range of affinities. […] In this type of experiment the stoichiometry parameter (N) was locked at 1 for data fitting.

[2] = Solid-state stability of crystalline L-lactate salt forms (storage in air / 40° C. and 75% RH, XRPD); assay type: physicochemical; details: solid L-lactate 1:1 salt of Compound (VIII); in air, or at 40° C. and 75% RH
Text: Samples for X-ray powder diffraction (XRPD) data collection were gently ground by marble mortar and loaded into a crystallographic capillary (from Hampton Research, Quartz or Glass Type 10, 0.4 or 0.7 mm diameter). Diffraction patterns were collected at room temperature using CuKα radiation (λ=1.5418 Å) from a Rigaku rotating anode RU3HR, Osmic blue confocal optics, ¼ c goniometer and a Rigaku HTC image plate detector. 2D images were collected while spinning φ axis with a detector to crystal distance of 250 mm. Data collection was controlled by CrystalClear software and 2D images were converted to 1D plot (2θ vs. Intensity) by Datasqueeze (intensity averaged over the azimuthal angle 0≦χ≦360° for 2θ range 3-30° in 0.02° steps). In house program AstexXRPD was used for manipulation and visualisation of 1D XRPD patterns.

SMILES | Kd [1] | stability of crystalline form [2]
CC(C)c1cc(C(=O)N2Cc3ccc(CN4CCN(C)CC4)cc3C2)c(O)cc1O [Example 55, (2,4-dihydroxy-5-isopropyl-phenyl)-[5-(4-methyl-piperazin-1-ylmethyl)-1,3-dihydro-isoindol-2-yl]-methanone] | < 0.1 µM | –
CC(C)c1cc(C(=O)N2Cc3ccc(CN4CCN(C)CC4)cc3C2)c(O)cc1O.C[C@H](O)C(=O)O [Form FL1, (2,4-dihydroxy-5-isopropyl-phenyl)-[5-(4-methyl-piperazin-1-ylmethyl)-1,3-dihydro-isoindol-2-yl]-methanone L-lactate salt] | – | stable in air and at 40 °C and 75% RH for at least one month
CC(C)c1cc(C(=O)N2Cc3ccc(CN4CCN(C)CC4)cc3C2)c(O)cc1O.C[C@H](O)C(=O)O [Form FL3, (2,4-dihydroxy-5-isopropyl-phenyl)-[5-(4-methyl-piperazin-1-ylmethyl)-1,3-dihydro-isoindol-2-yl]-methanone L-lactate salt] | – | transforms in air into form FL1
CC(C)c1cc(C(=O)N2Cc3ccc(CN4CCN(C)CC4)cc3C2)c(O)cc1O.C[C@H](O)C(=O)O [form FL2, (2,4-dihydroxy-5-isopropyl-phenyl)-[5-(4-methyl-piperazin-1-ylmethyl)-1,3-dihydro-isoindol-2-yl]-methanone L-lactate salt] | – | stable in air
